Measurements as given in article PMC7217877, “N-AS-triggered SPMs are direct regulators of microglia in a model of Alzheimer’s disease” (Nature Communications, 2020).
Residue numbers refer to the chain shown, from its start. Several values for one entry are separate records, joined by “and”; a condition that tells them apart may be missing. Identical values can stand only once.

How the values were obtained:
Experiment in all cases: in vitro [14C] acetylation assay of purified COX2
Type in all cases: biochemical
Details in all cases: replicates, listed as C14 N-AS
COX2 S565A = target: T1, COX2 S565A (Homo sapiens, UniProt P35354, S565A)
T1 construct: His (N); made in house
T1 sequence (P35354 18-604 S565A): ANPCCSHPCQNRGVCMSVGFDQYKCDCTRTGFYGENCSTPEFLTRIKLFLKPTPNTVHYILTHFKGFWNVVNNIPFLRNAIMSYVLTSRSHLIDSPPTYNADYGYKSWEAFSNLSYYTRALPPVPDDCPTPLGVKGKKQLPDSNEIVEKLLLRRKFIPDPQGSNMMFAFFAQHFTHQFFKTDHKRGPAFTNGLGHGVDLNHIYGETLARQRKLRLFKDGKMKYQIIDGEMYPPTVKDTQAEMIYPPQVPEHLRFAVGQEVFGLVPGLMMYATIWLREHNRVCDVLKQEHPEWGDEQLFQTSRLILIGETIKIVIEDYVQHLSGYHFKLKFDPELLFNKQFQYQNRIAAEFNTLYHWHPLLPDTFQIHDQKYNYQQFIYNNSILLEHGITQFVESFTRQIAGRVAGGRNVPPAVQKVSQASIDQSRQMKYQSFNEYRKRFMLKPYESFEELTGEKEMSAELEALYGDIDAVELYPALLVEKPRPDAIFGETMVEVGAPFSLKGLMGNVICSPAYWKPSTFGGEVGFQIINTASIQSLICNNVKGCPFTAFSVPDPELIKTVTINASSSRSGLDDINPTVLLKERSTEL
Text: (§1) Single point mutations in SphK1 (R56A, R57A, R24A, R185A, D178A, and F192A) and COX2 (S565A, N181A, T564A, and S567A) were generated using the In-Fusion Cloning Kits (Clontech) and ORF cDNA expression plasmids of human SphK1 and COX2 gene (Sino Biological Inc, HG15679-NH and HG12036-NH), according to the manufacturer’s instructions. The forward and reverse primers described in Supplementary Table 4. The SphK1 WT, SphK1 mutants, COX2 WT, and COX2 mutant plasmids were transformed in the One shot TOP 10 competent cell (Invitrogen). The bacteria were grown in Luria-Bertani (LB, Invitrogen) plates supplemented with 50 μg ml^−1 kanamycin (Sigma-Aldrich) at 37 °C. The bacterial cell pellets were resuspended in lysis buffer containing 20 mM sodium phosphate (GE Healthcare), 500 mM NaCl (GE Healthcare), 20 mM imidazole (pH 7.4) (GE Healthcare), 0.2 mg ml^−1 lysozyme (Sigma-Aldrich), 20 μg ml^−1 DNase I (Roche), 1 mM MgCl2 (Sigma-Aldrich), and 1 mM PMSF (Sigma-Aldrich) before being lysed by sonication and clarified by centrifugation at 15,493×g for 10 min. Proteins were purified from the soluble fraction using His-Spin Trap columns (GE Healthcare) and the binding and acetylation assays were performed.
(§2) Acetylation assays were performed according to previously described procedures with minor modifications. […] To confirm the N-AS-mediated COX2 acetylation, 10 μg COX2 (WT or mutants) was used incubated with [^14C] N-AS (2 μCi, ARC UK Ltd, ARC-1024) at 37 °C for 2 h. [^14C] aspirin (2 μCi, ARC UK Ltd, ARC-0473) was conducted as the positive control. The reactions were terminated by placing the reaction tubes in ice for 5 min. To evaluate in vivo neuronal and microglial COX2 acetylation, 10 μCi [^14C] N-AS was orally administrated to 9-months-old WT and APP/PS1 mice. After 1 h, neuron and microglia were isolated and sonicated in culture media. […] Acetylated COX2 proteins bound to the beads were analyzed using a Tri-Carb 3110TR liquid scintillation counter (Perkin-Elmer).

COX2 N181A = target: T2, COX2 N181A (Homo sapiens, UniProt P35354, N181A)
T2 construct: His (N); made in house
T2 sequence (P35354 18-604 N181A): T1 sequence (P35354 18-604 S565A) with N164A, A548S
Text: as §1, §2

COX2 S567A = target: T3, COX2 S567A (Homo sapiens, UniProt P35354, S567A)
T3 construct: His (N); made in house
T3 sequence (P35354 18-604 S567A): T1 sequence (P35354 18-604 S565A) with A548S, S550A
Text: as §1, §2

CCCCCCCCCCCCC/C=C/[C@@H](O)[C@H](CO)NC(C)=O [N-AS, N-((2S,3R,E)-1,3-Dihydroxyoctadec-4-en-2-yl)acetamide]
C14 radioactivity of COX2, acetylation assay (Fig 1h) (COX2 S565A): 117550 and 118051 and 117876 and 111509 and 116124 and 117620 | C14 radioactivity of COX2, acetylation assay (Fig 1h) (COX2 N181A): 141977 and 143404 and 142984 and 143554 and 143318 and 142968 | C14 radioactivity of COX2, acetylation assay (Fig 1h) (COX2 S567A): 185354 and 188203 and 187860 and 187573 and 187463 and 187847
